According to paper PMC12337341 (Proceedings of the National Academy of Sciences of the …, 2025):

Legend:
Type in all cases: biochemical
DCXR = DCXR (Homo sapiens, UniProt Q7Z4W1); assay: 1H NMR
CRYL1 [1] = target: T1, CRYL1 (Homo sapiens, UniProt Q9Y2S2); assay: NADH formation at […] nm; settings: 20 mM potassium phosphate, 37 °C, L-gulonate
T1 sequence (Q9Y2S2 2-319): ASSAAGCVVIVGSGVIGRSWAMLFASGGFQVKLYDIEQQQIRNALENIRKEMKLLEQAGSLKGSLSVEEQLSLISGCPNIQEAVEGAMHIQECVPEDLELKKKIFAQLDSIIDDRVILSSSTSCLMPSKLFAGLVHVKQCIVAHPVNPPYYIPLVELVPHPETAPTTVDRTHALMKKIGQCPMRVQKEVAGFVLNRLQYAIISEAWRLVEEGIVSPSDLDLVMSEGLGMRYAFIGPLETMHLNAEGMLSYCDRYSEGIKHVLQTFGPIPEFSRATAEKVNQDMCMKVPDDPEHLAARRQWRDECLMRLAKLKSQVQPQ

CRYL1 [2] = target: T1, CRYL1; assay: 1H NMR, NADH at […] nm and UHPLC-HRMS of product BKG; settings: 20 mM potassium phosphate pH 7.9, 25 °C, NAD+ (NMR); oxidation at C3

Chain of DCXR (Q7Z4W1 whole entry): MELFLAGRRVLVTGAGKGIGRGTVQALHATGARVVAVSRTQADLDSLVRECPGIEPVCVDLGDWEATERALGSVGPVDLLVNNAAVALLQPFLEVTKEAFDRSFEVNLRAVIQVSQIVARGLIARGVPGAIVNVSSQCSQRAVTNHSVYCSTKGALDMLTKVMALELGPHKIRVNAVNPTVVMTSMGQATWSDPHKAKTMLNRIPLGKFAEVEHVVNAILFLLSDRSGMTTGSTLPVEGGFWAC

SMILES: OC[C@@H](O)[C@H](O)[C@@H](O)CO [xylitol]
- 1H NMR (DCXR; reverse reaction with NADP+, 20 mM potassium phosphate pH 7.9, 25 °C): using DCXR in the reverse reaction with xylitol and NADP+ as substrates

SMILES: NC(=O)c1ccc[n+]([C@@H]2O[C@H](COP(=O)(O)OP(=O)(O)OC[C@H]3O[C@@H](n4cnc5c(N)ncnc54)[C@H](O)[C@@H]3O)[C@@H](O)[C@H]2O)c1 [NAD^+]
- NADH formation at 340 nm (CRYL1 [1]): exploiting the equilibrium of the NAD-dependent reaction of CRYL1

SMILES: O=C(O)[C@@H](O)[C@@H](O)[C@H](O)[C@@H](O)CO [L-gulonate]
- 1H NMR, NADH at 340 nm and UHPLC-HRMS of product BKG (CRYL1 [2]): the CRYL1 oxidation of L-gulonate at C3 is observed

SMILES: NC(=O)c1ccc[n+]([C@@H]2O[C@H](COP(=O)(O)OP(=O)(O)OC[C@H]3O[C@@H](n4cnc5c(N)ncnc54)[C@H](OP(=O)(O)O)[C@@H]3O)[C@@H](O)[C@H]2O)c1 [NADP+]
- 1H NMR (DCXR; reverse reaction with xylitol, same): using DCXR in the reverse reaction with xylitol and NADP+ as substrates
